The values below come from US6423699B1, “Combination therapies using benzimidazolones” (American Home Products Corporation, priority 1999, dated 2002).

Values joined by “and” are separate entries in the source; they are usually repeats but may differ in a detail not shown here. Equal entries are not always repeated.

In the test the test system is rat uterine decidualization. The test can be described thus: Rat decidualization assay. Particulars: decidual response; for Estimated average EC50 (mg/kg s.c.): average over dose-response curves; for Estimated EC50 (mg/kg s.c.), individual studies: ovariectomized rats, uterine wet weight. Type of test: in vivo. As for the experimental part: 2. Rat Decidualization Assay
b. Animals (RACUC protocol #5002)
The animals are treated once daily for seven days.
Uteri are removed and trimmed of fat.
Body weight: Mean total animal body weight (default-kg)
Decidual response: [(D−C)/C]×100%

As for `C#C[C@]1(O)CC[C@H]2[C@@H]3CCC4=CC(=O)CC[C@@H]4[C@H]3C(=C)C[C@@]21CC` [3-Ketodesogestrel], the “Estimated average EC50 (mg/kg s.c.)” value was 0.10 mg/kg s.c; the “Estimated EC50 (mg/kg s.c.), individual studies” value (from here on “Estimated EC50”) was 0.10 mg/kg s.c. and 0.06 mg/kg s.c. and 0.11 mg/kg s.c. As to `C#C[C@]1(O)CC[C@H]2[C@@H]3CCC4=CC(=O)CC[C@@H]4[C@H]3CC[C@@]21CC` [Levonorgestrel], the “Estimated average EC50 (mg/kg s.c.)” value is listed as 0.10 mg/kg s.c; the “Estimated EC50” value was 0.08 mg/kg s.c. and 0.12 mg/kg s.c. and 0.09 mg/kg s.c. (2×).

On to `CC(=O)O[C@]1(C(C)=O)CC[C@H]2[C@@H]3C[C@H](C)C4=CC(=O)CC[C@]4(C)[C@H]3CC[C@@]21C` [MPA, medroxyprogesterone acetate], for which the “Estimated EC50” value was 0.42 mg/kg s.c. and 0.39 mg/kg s.c. (2×). Take `CC(=O)[C@H]1CC[C@H]2[C@@H]3CCC4=CC(=O)CC[C@]4(C)[C@H]3CC[C@]12C` [Progesterone]: the “Estimated average EC50 (mg/kg s.c.)” value was 5.62 mg/kg s.c and the “Estimated EC50” value is 5.50 mg/kg s.c.
